Measured values: PMC10258794, “To Fold or Not to Fold: Diastereomeric Optimization of an α-Helical Antimicrobial Peptide” (Journal of Medicinal Chemistry, 2023)
Values after ≈ are worked out from the molar mass of the structure shown. Read-outs that look alike come from different tables or passages of the source. Non-standard residues stand in square brackets, D forms with d. Residues, ends and D or L forms follow the SMILES beside them.

Columns and labels:
[1] = EYPC vesicle leakage assay; assay type: biochemical; conditions: 10 μg/mL of compound; 10 mM TRIS, 107 mM NaCl, pH 7.4
Procedure: 5(6)-carboxyfluorescein (CF) was purchased from Sigma. EYPC, EYPG, and a Mini-Extruder were purchased from Avanti Polar Lipids. Egg PC or Egg PG thin lipid layers were prepared by evaporating a solution of 100 mg of EYPC or EYPG in 4 mL of MeOH/CHCl3 (1:1) on a rotary evaporator at room temperature and then dried in vacuo overnight. […] Extravesicular components were removed by gel filtration (Sephadex G-50) with 10 mM TRIS, 107 mM NaCl, pH 7.4 buffer. Final conditions: ∼2.5 mM PC or PG; inside: 50 mM CF, 10 mM TRIS, 10 mM NaCl, pH 7.4 buffer; outside: 10 mM TRIS, 107 mM NaCl, pH 7.4. […] The CF efflux was monitored at λem 517 nm (λex 492 nm) as a function of time after addition of the desired volume of peptide from 2 mg/mL stock in mQ water at t = 45 s, 10 and 50 μg/mL were monitored for both EYPC and EYPG. […] Fluorescence intensities were then normalized to the maximal emission intensity using I(t) = (It – I0)/(I∞ – I0) where I0 = It at peptide addition, I∞ = It at saturation of lysis.

S. aureus COL MRSA = system: S. aureus COL MRSA
Procedure: (§1) Antimicrobial activity was determined for all peptides on E. coli W3110, P. aeruginosa PAO1, A. baumannii ATCC19606, K. pneumoniae NCTC418, and methicillin-resistant S. aureus COL and for selected peptides on P. aeruginosa PA14 and the polymyxin B-resistant derivatives PA14 4.13, PA14 4.18, and PA14 2P4 as well as the clinical isolates ZEM-1A and ZEM9A, K. pneumoniae OXA-48, Enterobacter cloacae, Stenotrophomonas maltophilia, B. cenocepacia, and Staphylococus epidermis. To determine the MIC, the broth microdilution method was used.[75] A single bacterial colony was grown in LB medium overnight at 37 °C and 180 rpm shaking. The compounds were prepared as stock solutions of 2 mg/mL in sterilized milliQ deionized water, added to the first well of 96-well sterile, polypropylene round-bottom microtiter plates (TPP, untreated, Corning Incorporated, Kennebunk, USA), and diluted serially by 1/2. […] The bacterial inoculum was prepared by measuring the absorbance of the overnight culture, which was diluted to concentration of the bacteria was quantified by measuring absorbance at 600 nm and diluted to an OD600 of 0.022 in MH medium pH 7.4 (Sigma-Aldrich, Buchs, Switzerland). The sample solutions (150 μL) were mixed with 4 μL of diluted bacterial suspension with a final inoculation of about 5 × 10^5 CFU. For each test, two columns of the plate were kept for sterility control (MH medium only) and growth control (MH medium with bacterial inoculum, no compound). […] The plates were incubated at 37 °C for 16–20 h under static conditions. 15 μL of 3-(4,5-dimethylthiazol-2-yl)-2,5-diphenyltetrazolium bromide (MTT)[76] (1 mg/mL in sterilized milliQ deionized water) was added to each well, and the plates were incubated at room temperature until MTT staining was completed. The MIC was defined as the lowest concentration of the dendrimer that inhibits the visible growth of the tested bacteria (yellow) with the unaided eye.

K. pneumoniae NCTC418 = system: K. pneumoniae NCTC418
Procedure: as §1

E. coli W3110 = system: E. coli W3110
Procedure: as §1

A. baumannii ATCC19606 = system: A. baumannii ATCC19606
Procedure: as §1

P. aeruginosa PAO1 = system: P. aeruginosa PAO1
Procedure: as §1

human red blood cells = assay: Hemolysis assay (MHC)
Procedure: To determine the MHC stock solutions, 8 mg/mL peptide in PBS (pH 7.4) was prepared, and 50 μL was diluted serially by l/2 in 50 μL of PBS (pH 7.4) in a 96-well plate (Costar or Nunc, polystyrene, untreated). […] Plasma was discarded, and the pellet was re-suspended in a 15 mL Falcon tube in 5 mL of PBS. The washing was repeated three times, and the remaining pellet was re-suspended in 10 mL of PBS. The hRBC suspension (50 μL) was added to each well, and the plate was incubated at room temperature for 4 h. MHC end points were determined by visual determination of the wells after the incubation period. Controls on each plate included a blank medium control (50 μL PBS + 50 μL of hRBCs suspension) and a hemolytic activity control (mQ-deionized water 50 μL + 50 μL hRBC suspension).

P. aeruginosa ZEM-1A = assay: microbe, parasite or virus in culture; conditions: ZEM-1A
Procedure: as §1

Enterobacter cloacae = assay: microbe, parasite or virus in culture
Procedure: as §1

[2] = MH broth pH 7.4, 16–20 h, 37 °C
[3] = supplementary CSV, ranges of Table 1 given as one number

Molecule | MIC S. aureus COL MRSA (S. aureus COL MRSA; [2]) [µg/mL] | MIC S. aureus COL (S. aureus COL MRSA; [3]) [µg/mL] | MIC K. pneumoniae NCTC418 (K. pneumoniae NCTC418; [2]) [µg/mL] | MIC E. coli W3110 (E. coli W3110; [2]) [µg/mL] | MIC A. baumannii ATCC19606 (A. baumannii ATCC19606; [2]) [µg/mL] | MIC A. baumannii ATCC19606 (A. baumannii ATCC19606; [3]) [µg/mL] | MIC P. aeruginosa PAO1 (P. aeruginosa PAO1; [2]) [µg/mL] | MIC P. aeruginosa PAO1 (P. aeruginosa PAO1; [3]) [µg/mL] | also measured
CC(C)C[C@H](NC(=O)[C@H](CC(C)C)NC(=O)[C@@H](CCCCN)NC(=O)[C@H](CC(C)C)NC(=O)[C@H](CC(C)C)NC(=O)[C@@H](CCCCN)NC(=O)[C@H](N)CCCCN)C(=O)N[C@@H](CCCCN)C(=O)N[C@@H](CC(C)C)C(=O)N[C@H](CC(C)C)C(=O)N[C@H](CC(C)C)C(N)=O [HP26, kkLLkLLKLll] | 32 (≈ 24.2 µM) | 32 (≈ 24.2 µM) | >64 | 4 (≈ 3.03 µM) | 16 (≈ 12.1 µM) | 16 (≈ 12.1 µM) | 4 (≈ 3.03 µM) | 4 (≈ 3.03 µM) | EYPC vesicle leakage (%) [1]: 6%
H-RRLLRLLRLLL-NH2 [HP32] | – | – | – | – | – | – | – | – | MHC (human red blood cells; human red blood cells in PBS pH 7.4, 4 h, room temperature): 15.6 µg/mL; MHC (human red blood cells; supplementary CSV, human red blood cells): 16 µg/mL
CC(C)C[C@H](NC(=O)[C@H](CC(C)C)NC(=O)[C@H](CCCCN)NC(=O)[C@H](CC(C)C)NC(=O)[C@H](CC(C)C)NC(=O)[C@@H](CCCCN)NC(=O)[C@H](N)CCCCN)C(=O)N[C@@H](CCCCN)C(=O)N[C@@H](CC(C)C)C(=O)N[C@@H](CC(C)C)C(=O)N[C@H](CC(C)C)C(N)=O [HP7] | – | – | – | – | – | – | – | – | MIC ZEM-1A (P. aeruginosa ZEM-1A; pH 7.4): 1 µg/mL (≈ 0.757 µM); MIC E. cloacae (Enterobacter cloacae): 2 µg/mL (≈ 1.51 µM)
H-RRIIRIIRIII-NH2 [HP36] | – | – | – | – | – | – | – | – | MIC S. aureus COL (S. aureus COL MRSA; COL): 24 µg/mL; MIC S. aureus COL MRSA (S. aureus COL MRSA; COL, pH 7.4): 16 to 32 µg/mL; MIC A. baumannii ATCC19606 (A. baumannii ATCC19606; ATCC19606): 12 µg/mL; MIC A. baumannii ATCC19606 (A. baumannii ATCC19606; ATCC19606, pH 7.4): 8 to 16 µg/mL; MHC (human red blood cells): 63 µg/mL; MHC (human red blood cells; pH 7.4): 62.5 µg/mL
CC[C@H](C)[C@H](NC(=O)[C@@H](NC(=O)[C@@H](NC(=O)[C@@H](CCCNC(=N)N)NC(=O)[C@@H](NC(=O)[C@@H](NC(=O)[C@@H](CCCNC(=N)N)NC(=O)[C@@H](NC(=O)[C@@H](NC(=O)[C@@H](CCCNC(=N)N)NC(=O)[C@H](N)CCCNC(=N)N)[C@@H](C)CC)[C@@H](C)CC)[C@@H](C)CC)[C@@H](C)CC)[C@@H](C)CC)[C@@H](C)CC)C(N)=O [HP37, rrIIrIIrIII] (H-[dR][dR]II[dR]II[dR]III-NH2) | – | – | – | – | – | – | – | – | MIC S. aureus COL (S. aureus COL MRSA; COL): 12 µg/mL (≈ 8.37 µM); MIC S. aureus COL MRSA (S. aureus COL MRSA; COL, pH 7.4): 8 to 16 µg/mL; MIC K. pneumoniae NCTC418 (K. pneumoniae NCTC418; NCTC418): 48 µg/mL (≈ 33.5 µM); MIC K. pneumoniae NCTC418 (K. pneumoniae NCTC418; NCTC418, pH 7.4): 32 to 64 µg/mL; MIC A. baumannii ATCC19606 (A. baumannii ATCC19606; ATCC19606): 12 µg/mL (≈ 8.37 µM); MIC A. baumannii ATCC19606 (A. baumannii ATCC19606; ATCC19606, pH 7.4): 8 to 16 µg/mL; MIC P. aeruginosa PAO1 (P. aeruginosa PAO1; PAO1): 6 µg/mL (≈ 4.18 µM); MIC P. aeruginosa PAO1 (P. aeruginosa PAO1; PAO1, pH 7.4): 4 to 8 µg/mL; MHC (human red blood cells): 250 µg/mL; MHC (human red blood cells; pH 7.4): 250 µg/mL
CC(C)C[C@H](NC(=O)[C@H](CC(C)C)NC(=O)[C@H](CC(C)C)NC(=O)[C@H](CCCCN)NC(=O)[C@@H](CC(C)C)NC(=O)[C@@H](CC(C)C)NC(=O)[C@H](CCCCN)NC(=O)[C@H](CC(C)C)NC(=O)[C@H](CC(C)C)NC(=O)[C@H](CCCCN)NC(=O)[C@@H](N)CCCCN)C(N)=O [HP6, KKLLKllKLLL] | 16 (≈ 12.1 µM) | 16 (≈ 12.1 µM) | 64 (≈ 48.4 µM) | 2 (≈ 1.51 µM) | 4 (≈ 3.03 µM) | 4 (≈ 3.03 µM) | 8 (≈ 6.05 µM) | 8 (≈ 6.05 µM) | MIC K. pneumoniae NCTC418 (K. pneumoniae NCTC418; [3]): 64 µg/mL (≈ 48.4 µM)
CC(C)C[C@H](NC(=O)[C@@H](CC(C)C)NC(=O)[C@H](CC(C)C)NC(=O)[C@@H](CCCCN)NC(=O)[C@H](CC(C)C)NC(=O)[C@@H](CC(C)C)NC(=O)[C@H](CCCCN)NC(=O)[C@@H](CC(C)C)NC(=O)[C@H](CC(C)C)NC(=O)[C@@H](CCCCN)NC(=O)[C@@H](N)CCCCN)C(N)=O [HP30, KkLlKlLkLlL] | 64 (≈ 48.4 µM) | 64 (≈ 48.4 µM) | >64 | 8 (≈ 6.05 µM) | 32 (≈ 24.2 µM) | 32 (≈ 24.2 µM) | 8 to 16 | 12 (≈ 9.08 µM) | –
CC(C)C[C@H](NC(=O)[C@H](CC(C)C)NC(=O)[C@H](CC(C)C)NC(=O)[C@H](CCCCN)NC(=O)[C@H](CC(C)C)NC(=O)[C@H](CC(C)C)NC(=O)[C@H](CCCCN)NC(=O)[C@@H](CC(C)C)NC(=O)[C@@H](CC(C)C)NC(=O)[C@@H](CCCCN)NC(=O)[C@@H](N)CCCCN)C(N)=O [HP8, KkllKLLKLLL] | – | – | – | – | – | – | – | – | MIC P. aeruginosa ZEM-1A (P. aeruginosa ZEM-1A): 2 µg/mL (≈ 1.51 µM)
CC(C)C[C@H](NC(=O)[C@H](CCCCN)NC(=O)[C@H](CC(C)C)NC(=O)[C@H](CC(C)C)NC(=O)[C@@H](CCCCN)NC(=O)[C@H](N)CCCCN)C(=O)N[C@@H](CC(C)C)C(=O)N[C@@H](CCCCN)C(=O)N[C@@H](CC(C)C)C(=O)N[C@H](CC(C)C)C(=O)N[C@H](CC(C)C)C(N)=O [HP18, kkLLKLLKLll] | 16 to 32 | – | >64 | 4 to 8 | 8 (≈ 6.05 µM) | 8 (≈ 6.05 µM) | 8 (≈ 6.05 µM) | 8 (≈ 6.05 µM) | MIC E. coli W3110 (E. coli W3110; [3]): 6 µg/mL (≈ 4.54 µM)
CC(C)C[C@H](NC(=O)[C@H](CCCCN)NC(=O)[C@H](N)CCCCN)C(=O)N[C@@H](CC(C)C)C(=O)N[C@H](CCCCN)C(=O)N[C@H](CC(C)C)C(=O)N[C@H](CC(C)C)C(=O)N[C@@H](CCCCN)C(=O)N[C@@H](CC(C)C)C(=O)N[C@@H](CC(C)C)C(=O)N[C@H](CC(C)C)C(N)=O [HP28, kKLLkllKLLl] | 32 (≈ 24.2 µM) | 32 (≈ 24.2 µM) | >64 | 2 to 4 | – | – | 4 (≈ 3.03 µM) | 4 (≈ 3.03 µM) | EYPC vesicle leakage (%) [1]: 3%; MIC E. coli W3110 (E. coli W3110; [3]): 3 µg/mL (≈ 2.27 µM)
